Measurements published in US7183095B2, “Cell culture system for synthesis of infectious hepatitis C virus” (priority 2001, dated 2007).

Tested on: HCV type 1a (pCV-H77C) in Huh-7 cells
Test: Cell surface expression of HCV envelope proteins E1 and E2 by flow cytometry (FACS) in transfected Huh-7 cells
Assay type: cell-based, hepatitis C virus
Conditions: Huh-7 cells transfected with type 1a pCVH77C and AR3126, interferon treatment
Method: Transfected or supernatant treated Huh-7 cells were stained with anti-E1 or anti-E2 antibodies using procedures similar to those described previously by Koka et al. A goat anti-mouse IgG1 antibody conjugated to PE was used for labeling of the primary antibody. Flow cytometric analyses were performed on a Becton-Dickinson FACSCAN.
Huh-7 cells (1×10^7) were transfected/co-transfected with plasmid DNA at 60–70% confluency in T-75 tissue culture flasks. In some experiments transfection was carried out in 6-well plates (3×10^6 cells per well and 2 μg of each plasmid). Ten μgs of each plasmid was added to 0.45 ml of serum-free RPMI and mixed with 180 μl of superfect transfection reagent from Quiagen. The mixture was incubated at room temperature for 10 min after which 3 ml of RPMI containing 10% fetal bovine serum was then added. The mixture was then layered on Huh-7 cells and incubated at 37° C. for 6 h. The cell culture medium was changed regularly until the cells were harvested for labeling with appropriate antibodies or RNA isolation.
Viral protein synthesis was monitored by assaying cell surface expression of viral envelope proteins E1 and E2 by fluorescent activated cell sorting (FACS). Cell surface expression of HCV E1 and E2 was determined by flow cytometry following a procedure as previously described. […]

gamma: interferon gamma was tested, and the E1/E2 expression was “inhibited E1/E2 expression only marginally”.
